pIC50: −log10 of the molar value.
System: 565232-114-T-J1-PDC complex spheroid viability
Experiment: Anticancer human tumor 565232-114-T-J1-PDC patient-derived bladder carcinoma cell line growth inhibition [CLK]
Conditions: for pIC50: curve of first compound; for viability, T/C: stronger effect = lower value
Source text: A high-throughput screen of multi-cell type tumor spheroids was designed to identify active combinations of […] and targeted small molecules. Complex spheroids include a stromal component modeled by human endothelial cells (HUVEC) and fibroblasts modeled by human mesenchymal stem cells (MSCs). The concentration ranges selected for each drug and investigational agent were based upon clinically achievable concentrations if the clinical Cmax of the agent was known.
Compounds. The drugs and investigational agents: cirtuvivint (SM08502; NSC835563), CC-671 (NSC850746), vemurafenib (NSC761431), tapotoclax (NSC804041), sotorasib (NSC818433), adagrasib (NSC831453), MRTX-1133 (NSC836407), BAY2416964 (NSC825713), copanlisib (NSC816437), inavolisib (NSC800729), abemaciclib (NSC768073), osimertinib (NSC779217), entinostat (NSC756642), eltanexor (KPT-8602, NSC794443), venetoclax (NSC766270), ceralasertib (NSC777638), bortezomib (NSC756655), olaparib (NSC753686), talazoparib (NSC767125), alisertib (NSC759677), peposertib (NSC802822), gemcitabine (NSC613327), 5-fluorouracil (NSC19893), SN-38 (NSC673596), oxaliplatin (NSC266046), paclitaxel (NSC125973), and doxorubicin (NSC123127), were obtained from the National Cancer Institute (NCI) Developmental Therapeutics Program Chemical Repository. The FDA-approved anticancer drug set is available from the Developmental Therapeutics Program at https://dtp.cancer.gov/organization/dscb/obtaining/available plates.htm. […] The stock solutions were prepared in dimethyl sulfoxide (DMSO, Sigma-Aldrich, St. Louis, MO, cat. D2650), except for the platinum complexes which were prepared in saline (Quality Biological, Gaithersburg, MD, cat. 114-055-101), at 800-fold the tested concentration and stored at -70 degrees C prior to their use. All drugs and investigational agents were tested over a range starting from a high concentration at or near the clinical Cmax and decreasing in half-log increments. If the clinical Cmax for an agent had not been determined, the highest concentration tested was 10 microM.
Cell Culture. All cells were maintained in an incubator at 37 degrees C and 5% CO2 with 95% humidity. The PDC lines were cultured according to standard operating procedures established by the NCI PDMR. Briefly, all PDCs were thawed and cultured in Matrigel-coated flasks prepared with a working solution of 1X Ham's F-12 nutrient mix, without supplementation (Invitrogen, Waltham, MA, cat. 11765054), 100 U/mL penicillin-streptomycin (Invitrogen, cat. 15140122), and 2.5% Matrigel (Corning Inc., Corning, NY, cat. 354248) for the first three passages. The 947758-054-R-J2-PDC line was cultured in 6B/Colon 1A media, which includes advanced DMEM/F-12 (Thermo Fisher Scientific, cat. 12634028), 10 mM HEPES (Thermo Fisher Scientific, cat. 15630080), 1X GlutaMAX supplement (Thermo Fisher Scientific, cat. 35050061), 0.1 mg/mL primocin (InvivoGen, cat. ant-pm-2), 10% defined fetal bovine serum, heat inactivated (HyClone Laboratories Inc., cat. SH30070.03HI), 1.25 mM N-Acetyl-L-cysteine (Sigma-Aldrich, cat. A9165), 10 mM nicotinamide (Sigma-Aldrich, cat. N0636), 1X B-27 supplement (Thermo Fisher Scientific, cat. 17504044), 1X N-2 supplement (Thermo Fisher Scientific, cat. 17502048), and 10 microM Y-27632 dihydrochloride (Tocris Bioscience, cat. 1254). The 876862-298-R-J1-PDC was cultured in 6E media, which includes all 6B/Colon 1A media components plus 50% L-WRN conditioned media (ATCC, cat. CRL-3276), 50 ng/mL recombinant human EGF recombinant protein (hEGF; Thermo Fisher Scientific, cat. PHG0311), 10 ng/mL recombinant human fibroblast growth factor 10 (hGFG-10; PeproTech, cat. 100-26), 1 ng/mL recombinant human fibroblast growth factor 2 (hFGF-2; PeproTech, cat. 100-18B), and 1 µM prostaglandin E2 (PGE2; Tocris, cat. 2296). The 227483-062-R1-J1-PDC line was cultured in Panc media, containing all 6E components except hFGF-2, with the addition of 500 nM SB-431542 (Selleckchem, cat. S1067) and 10 nM gastrin (Tocris, cat. 3006). […]

[1] = second compound 0.0316 µM, first compound 0.0316 µM
[2] = second compound 0.0316 µM, first compound 0.1 µM
[3] = second compound 0.0316 µM, first compound 0.316 µM
[4] = second compound 0.0316 µM, first compound 1 µM
[5] = second compound 0.0316 µM, first compound 3.16 µM
[6] = second compound 0.0316 µM, first compound 10 µM
[7] = second compound 0.1 µM, first compound 0.0316 µM
[8] = second compound 0.1 µM, first compound 0.1 µM
[9] = second compound 0.1 µM, first compound 0.316 µM
[10] = second compound 0.1 µM, first compound 1 µM
[11] = second compound 0.1 µM, first compound 3.16 µM
[12] = second compound 0.1 µM, first compound 10 µM
[13] = second compound 0.316 µM, first compound 0.0316 µM
[14] = second compound 0.316 µM, first compound 0.1 µM
[15] = second compound 0.316 µM, first compound 0.316 µM
[16] = second compound 0.316 µM, first compound 1 µM
[17] = second compound 0.316 µM, first compound 3.16 µM
[18] = second compound 0.316 µM, first compound 10 µM
[19] = second compound 1 µM, first compound 0.0316 µM
[20] = second compound 1 µM, first compound 0.1 µM
[21] = second compound 1 µM, first compound 0.316 µM
[22] = second compound 1 µM, first compound 1 µM
[23] = second compound 1 µM, first compound 3.16 µM
[24] = second compound 1 µM, first compound 10 µM
[25] = second compound 3.16 µM, first compound 0.0316 µM
[26] = second compound 3.16 µM, first compound 0.1 µM
[27] = second compound 3.16 µM, first compound 0.316 µM
[28] = second compound 3.16 µM, first compound 1 µM
[29] = second compound 3.16 µM, first compound 3.16 µM
[30] = second compound 3.16 µM, first compound 10 µM
[31] = second compound 10 µM, first compound 0.0316 µM
[32] = second compound 10 µM, first compound 0.1 µM
[33] = second compound 10 µM, first compound 0.316 µM
[34] = second compound 10 µM, first compound 1 µM
[35] = second compound 10 µM, first compound 3.16 µM
[36] = second compound 10 µM, first compound 10 µM
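Also: spheroids exposed to compounds for 7 days before readout.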
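For viability, T/C in this document: 100% = DMSO vehicle wells with luminescence normalized to vehicle control.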

`CC(Nc1ccc2c(c1)OCCn1cc(N3C(=O)OCC3C(F)F)nc1-2)C(N)=O` (stereo unspecified) + CNC(=O)c1ccc(Nc2nc(OC3CCCC3)c3c(-c4ccc5nc(C)oc5c4)c[nH]c3n2)c(OC)c1 was tested, and the pIC50 (second compound 0.0316 µM) was under 5.00, the pIC50 (second compound 0.1 µM) was over 7.50 and the pIC50 (second compound 0.316 µM) was over 7.50. It also gave a pIC50 (second compound 1 µM) of over 7.50, a pIC50 (second compound 3.16 µM) of over 7.50 and a pIC50 (second compound 10 µM) of over 7.50. The viability, T/C [1] was 87.5%, the viability, T/C [2] was 93.6% and the viability, T/C [3] was 88.1%. The viability, T/C [4] was 100%, the viability, T/C [5] was 101% and the viability, T/C [6] was 101%. It also gave a viability, T/C [7] of 35.1%, a viability, T/C [8] of 34.1% and a viability, T/C [9] of 37.4%. For the same compound, the viability, T/C [10] was 39.9%, the viability, T/C [11] was 33.6% and the viability, T/C [12] was 29.2%. It also gave a viability, T/C [13] of 21.4%, a viability, T/C [14] of 20.2% and a viability, T/C [15] of 23.8%. It also gave a viability, T/C [16] of 23.7%, a viability, T/C [17] of 19.9% and a viability, T/C [18] of 18%. The viability, T/C [19] was 15.5%, the viability, T/C [20] was 15.3% and the viability, T/C [21] was 12.6%. For the same compound, the viability, T/C [22] was 14.9%, the viability, T/C [23] was 13.1% and the viability, T/C [24] was 9.75%. The viability, T/C [25] was 9.27%, the viability, T/C [26] was 10.4% and the viability, T/C [27] was 9.44%. It also gave a viability, T/C [28] of 10.1%, a viability, T/C [29] of 6.97% and a viability, T/C [30] of 10.2%. The viability, T/C [31] was 12.9%, the viability, T/C [32] was 10.9% and the viability, T/C [33] was 13.1%. It also gave a viability, T/C [34] of 9.16%, a viability, T/C [35] of 7.38% and a viability, T/C [36] of 5.93%.

With `Nc1ccccc1NC(=O)c1ccc(CNC(=O)OCc2cccnc2)cc1` + CNC(=O)c1ccc(Nc2nc(OC3CCCC3)c3c(-c4ccc5nc(C)oc5c4)c[nH]c3n2)c(OC)c1 the pIC50 (second compound 0.0316 µM) was 5.53, the pIC50 (second compound 0.1 µM) was 7.35 and the pIC50 (second compound 0.316 µM) was over 7.50. The pIC50 (second compound 1 µM) was over 7.50, the pIC50 (second compound 3.16 µM) was over 7.50 and the pIC50 (second compound 10 µM) was over 7.50. It also gave a viability, T/C [1] of 82%, a viability, T/C [2] of 109% and a viability, T/C [3] of 109%. It also gave a viability, T/C [4] of 87.8%, a viability, T/C [5] of 48.3% and a viability, T/C [6] of 0.6%. For the same compound, the viability, T/C [7] was 51%, the viability, T/C [8] was 47.9% and the viability, T/C [9] was 35%. The viability, T/C [10] was 24.9%, the viability, T/C [11] was 15.6% and the viability, T/C [12] was 0.18%. It also gave a viability, T/C [13] of 33.1%, a viability, T/C [14] of 27.7% and a viability, T/C [15] of 16.4%. It also gave a viability, T/C [16] of 11.1%, a viability, T/C [17] of 5.55% and a viability, T/C [18] of 0.32%. It also gave a viability, T/C [19] of 23.7%, a viability, T/C [20] of 18.4% and a viability, T/C [21] of 14.7%. The viability, T/C [22] was 8.67%, the viability, T/C [23] was 8.05% and the viability, T/C [24] was 0.14%. For the same compound, the viability, T/C [25] was 17.5%, the viability, T/C [26] was 16.4% and the viability, T/C [27] was 10.7%. The viability, T/C [28] was 6.76%, the viability, T/C [29] was 6.55% and the viability, T/C [30] was 0.19%. The viability, T/C [31] was 17.6%, the viability, T/C [32] was 14.9% and the viability, T/C [33] was 8.73%. The viability, T/C [34] was 6.93%, the viability, T/C [35] was 6.45% and the viability, T/C [36] was 0.27%.

For `CC1COCCN1c1cc(C2(S(C)(=N)=O)CC2)nc(-c2ccnc3[nH]ccc23)n1` (stereo unspecified) + CN1CCN(c2cc(C(=O)Nc3cc4cc(-c5cnn(C)c5)ccc4cn3)ccn2)CC1, the pIC50 (second compound 0.0316 µM) was under 5.00, the pIC50 (second compound 0.1 µM) was 5.19 and the pIC50 (second compound 0.316 µM) was over 7.50. For the same compound, the pIC50 (second compound 1 µM) was over 7.50, the pIC50 (second compound 3.16 µM) was over 7.50 and the pIC50 (second compound 10 µM) was over 7.50. It also gave a viability, T/C [1] of 89.7%, a viability, T/C [2] of 93.5% and a viability, T/C [3] of 98.5%. For the same compound, the viability, T/C [4] was 79.7%, the viability, T/C [5] was 101% and the viability, T/C [6] was 50.7%. The viability, T/C [7] was 95.7%, the viability, T/C [8] was 91.2% and the viability, T/C [9] was 80.7%. For the same compound, the viability, T/C [10] was 82.6%, the viability, T/C [11] was 98.8% and the viability, T/C [12] was 26.1%. The viability, T/C [13] was 16.3%, the viability, T/C [14] was 18.7% and the viability, T/C [15] was 14.9%. The viability, T/C [16] was 9.37%, the viability, T/C [17] was 3.94% and the viability, T/C [18] was 3.31%. For the same compound, the viability, T/C [19] was 0.17%, the viability, T/C [20] was 0.5% and the viability, T/C [21] was 0.18%. The viability, T/C [22] was 0.19%, the viability, T/C [23] was 1.38% and the viability, T/C [24] was 1.91%. For the same compound, the viability, T/C [25] was 0.25%, the viability, T/C [26] was 0.22% and the viability, T/C [27] was 3.08%. For the same compound, the viability, T/C [28] was 0.81%, the viability, T/C [29] was 0.72% and the viability, T/C [30] was 2.22%. For the same compound, the viability, T/C [31] was 1.75%, the viability, T/C [32] was 2.46% and the viability, T/C [33] was 1.22%. For the same compound, the viability, T/C [34] was 0.21%, the viability, T/C [35] was 0.21% and the viability, T/C [36] was 0.53%.

From PubChem BioAssay AID2060612 (Molecular Pharmacology Branch, DTP, NCI, 2025)
